Assays:
[1] = system: scopolamine-induced amnesia; assay: Scopolamine induced amnesia in multiple trial passive (inhibitory) avoidance assay; assay type: in vivo, rat; details: for Performance relative to scopolamine / Performance relative to saline: at the most effective dose, latency to enter dark chamber; for Performance relative to scopolamine: relative to impaired (scopolamine) group; for Performance relative to saline: relative to unimpaired (saline) control group; for most effective dose (the dose that increases the latency the most): i.p. immediately after training, scopolamine 0.75 mg/kg, retention 24 hours later
From the text: Inhibitory avoidance is used as a cognitive performance screen because the discrete nature of the task allows for precise pharmacological manipulation and for the ability to selectively study acquisition, consolidation, or recall or learned information.
The inhibitory avoidance apparatus used in these experiments consisted of a light chamber and a dark chamber, which were joined by means of a sliding guillotine door. Training involved placing a rat inside the light chamber with its head facing away from the door. Ten seconds later, the sliding door was opened, and the latency to enter the dark chamber was recorded (100 second maximum). When the rat entered the dark chamber, it received a continuous footshock (0.4 mA) through the metal grid floor until it returned to the light chamber. This sequence of events continued until the rat remained in the light chamber for a period of 100 consecutive seconds or until a maximum of 5 footshocks had been received.
Retention testing, or the ability of the rat to remember the previous events in the inhibitory avoidance apparatus, was conducted 24 hours after the initial testing. The rat was placed into the light chamber with its head facing away from the door. Ten seconds later, the door was opened, allowing the rat access to the dark chamber. No footshock was administered during retention testing. Latency to enter the dark chamber was recorded (900 seconds maximum) and used as a measure of memory.
To assess the effects of the carbamoyl esters on scopolamine-induced amnesia, rats were injected with saline or scopolamine hydrochloride (0.75 mg/kg) 30 minutes prior to training on the Inhibitory Avoidance task. Immediately following the training trial, rats were injected with saline or the carbamoyl ester.
Retention for the task in scopolamine or saline treated rats, was assessed as described above, 24 hours later. No compound (drug) was administered to the rat prior to the retention test and no shock was given during retention testing. For retention testing, the rat was placed into the light chamber. Fifteen seconds later, the door was automatically opened and latency to enter the dark compartment was measured. The latency to enter the dark chamber is the primary measure of memory on this task. Carbamoyl esters were evaluated in this protocol.

[2] = system: total cholinesterase activity in the brain; assay: Total cholinesterase activity in brain homogenate after i.p. injection; assay type: in vivo, Male Wistar rats; details: for tolerability of the dose: i.p. dose giving a cholinergic behavioral effect with minimal side effects
Description: Animals were decapitated 3 hours after injection and the brains rapidly removed. The brain tissue was diced into small pieces, placed on ice and immediately homogenized with a Polytron PT1200 (Kinematic AG) in 10 ml ice cold Tris with 0.1% Triton-X and protease inhibitors. The protease inhibitors in the extraction buffer were Antipain (10 μM), Aprotinin (5 TIU/mg protein), Bestatin ([…]), Leupeptin (10 μM) and Pepstatin (1 μM). The final dilution of the homogenate in the final assay mixture was 120-fold.
Total cholinesterase activity was determined by a modification of the colorimetric method of Ellmann, et al. (Biochem. Pharmacol., 7:88-95 (1961)), as described above. Hydrolysis of acetylthiocholine was monitored indirectly by measurement of the formation of the conjugate between thiocholine and DTNB. Optical density at 405 nm was recorded during five (5) minutes employing a microplate spectrophotometer (Polarstar, BMG Labtech), and plotted against time. The initial rates were calculated from the slope of the linear portion of the graph.
Cholinesterase activity was normalized for protein content of the homogenate. Relative cholinesterase activity was calculated as the ratio of normalized cholinesterase activity in a rat treated with a control compound or a carbamoyl ester over normalized cholinesterase activity in saline treated rats.

[3] = target: human recombinant acetylcholinesterase (Homo sapiens, UniProt P22303); assay type: biochemical
Sequence of human recombinant acetylcholinesterase (P22303 32-614): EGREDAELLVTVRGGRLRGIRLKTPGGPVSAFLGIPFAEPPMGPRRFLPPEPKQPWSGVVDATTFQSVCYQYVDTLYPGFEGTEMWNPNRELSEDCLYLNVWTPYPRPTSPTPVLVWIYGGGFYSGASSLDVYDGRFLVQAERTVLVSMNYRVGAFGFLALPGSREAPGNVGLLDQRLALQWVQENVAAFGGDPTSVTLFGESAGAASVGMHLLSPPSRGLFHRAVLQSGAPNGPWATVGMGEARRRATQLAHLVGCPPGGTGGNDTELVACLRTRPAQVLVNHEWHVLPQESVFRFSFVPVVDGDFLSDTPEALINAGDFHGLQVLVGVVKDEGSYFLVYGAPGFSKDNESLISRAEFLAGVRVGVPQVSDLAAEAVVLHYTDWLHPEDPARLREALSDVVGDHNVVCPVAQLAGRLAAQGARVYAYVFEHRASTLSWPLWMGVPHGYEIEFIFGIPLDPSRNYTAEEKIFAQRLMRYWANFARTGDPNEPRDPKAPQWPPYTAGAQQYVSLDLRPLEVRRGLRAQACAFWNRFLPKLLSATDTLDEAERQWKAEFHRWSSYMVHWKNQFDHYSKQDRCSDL

## CC(Cc1ccccc1)NC(=O)Oc1cccc([C@H](C)N(C)C)c1 (some centres unmarked) [Compound 3]
[1]
  Performance relative to scopolamine: 294%
  Performance relative to saline: 100%
  most effective dose (the dose that increases the latency the most): 1.4 mg/kg

## C[C@H](Cc1ccccc1)N(C)C(=O)Oc1cccc([C@H](C)N(C)C)c1 [Compound 7]
[2]; 2 mg/kg i.p., brain 3 hours after injection
  ChE inhibition: 38%
[2]; 2 mg/kg i.p., brain 3 hours after injection, relative to saline treated rats
  Relative ChE Activity: 62%
[2]
  tolerability of the dose: well-tolerated
[1]
  Performance relative to scopolamine: 298%
  Performance relative to saline: 64%
  most effective dose (the dose that increases the latency the most): 0.25 mg/kg

## C[C@H](Cc1ccccc1)NC(=O)Oc1cccc([C@H](C)N(C)C)c1 [Compound 9]
[2]; 8 mg/kg i.p., brain 3 hours after injection
  ChE inhibition: 41%
[2]
  tolerability of the dose: well-tolerated
[1]
  Performance relative to scopolamine: 306%
  Performance relative to saline: 83%
  most effective dose (the dose that increases the latency the most): 0.1 mg/kg

## C[C@H](Cc1ccccc1)NC(=O)Oc1ccc2c(c1)[C@]1(C)CCN(C)[C@@H]1N2C [Compound 14]
[3]
  fold increase in enzymatic activity compared to rivastigmine: 10 fold
[1]
  Performance relative to scopolamine: 186%
  Performance relative to saline: 51%
  most effective dose (the dose that increases the latency the most): 0.02 mg/kg

## CCN(C)C(=O)Oc1cccc([C@H](C)N(C)C)c1 [Rivastigmine, reference compound]
[2]
  tolerability of the dose: well-tolerated
[1]
  most effective dose (the dose that increases the latency the most): 0.25 mg/kg

From patent US20110144177A1, “Carbamoyl Esters That Inhibit Cholinesterase And Release Pharmacologically Active Agents” (priority 2003, published 2011)
